Assay results taken from patent publication US8753875B2, “Compositions and means for diagnosing microbial infections” (priority 2007, dated 2014).
Read-outs that look alike come from different tables or passages of the source.

Key:
E. coli [1] = conditions: cited from earlier work
E. coli [2] = conditions: 1142 E. coli outpatient urinary isolates, USA and Canada; cited from earlier work
E. coli [3] = assay: Growth of E. coli in antibiotic compartments of the platform (FIG. 3); type: cell-based; conditions: illustrated E. coli of FIG. 3
Description: The photos show growth of E. coli at different quantities of bacteria/ml urine.

E. faecalis [4] = assay: Growth on Flexicult plate, susceptibility/resistance to the five antibiotics (FIG. 4, Table A); type: cell-based
Description: (§1) The kit was developed for urine culture in the primary health care setting. It is designed preferably as a nine cm Petri dish divided into six compartments: One larger compartment for quantitative analysis and five smaller compartments for susceptibility testing. The agar in each small compartment contains one of five antimicrobials (for Denmark and Scandinavia preferably: trimethoprim, sulfamethizole, ampicillin, nitrofurantoin and mecillinam (amdinocillin)) at a concentration adjusted to the breakpoint, such that growth in these compartments indicates resistance, and no growth indicates susceptibility. The Petri dish preferably has higher sides, approximately 2.48 cm, than the usual dish, i.e. ca. 1.48 cm. This allows a larger amount, maximum 100 ml, of urine to be poured onto the dish for inoculation.
(§2) Reading the susceptibility of the bacterial growth: Each bacterium (if more than one) is read individually: The growth in each of the antibiotic fields is compared with the growth on the control agar. […] If there is no growth (or substantially less than the control agar), then the bacterium is considered to be susceptible to the antibiotic. […] When nitrofurantoin and mecillinam are used as antibiotics, a few single colonies may be seen of the same type as the bacterium on the control agar: These are not considered to be resistant mutants but “persisters,” i.e. if retested they will appear susceptible. This is commonly seen also by disc diffusion especially for mecillinam.

E. coli [5] = assay: as above; type: cell-based
Description: as §1, §2

P. vulgaris [6] = assay: as above; type: cell-based
Description: as §1, §2

Proteus mirabilis = assay: as above; type: cell-based
Description: as §1, §2

Enterobacter spp = assay: as above; type: cell-based
Description: as §1, §2

Citrobacter spp. = assay: as above; type: cell-based
Description: as §1, §2

Morganella spp. = assay: as above; type: cell-based
Description: as §1, §2

S. saprophyticus [7] = assay: as above; type: cell-based
Description: as §1, §2

Klebsiella spp. = assay: as above; type: cell-based
Description: as §1, §2

Candida spp. = assay: as above; type: cell-based
Description: as §1, §2

P. aureginosa = assay: as above; type: cell-based
Description: as §1, §2

E. faecium [8] = assay: as above; type: cell-based
Description: as §1, §2

S. agalactiae = tested on: S. agalactiae; parameters: key: Susceptible = S; Resistant = R; conditions: cited from earlier work
P. mirabilis = tested on: P. mirabilis; parameters: key: Susceptible = S; Resistant = R; conditions: cited from earlier work
Candida sp. = tested on: Candida sp.; parameters: key: Susceptible = S; Resistant = R; conditions: cited from earlier work
Morganella = tested on: Morganella; parameters: key: Susceptible = S; Resistant = R; conditions: cited from earlier work
Citrobacter = tested on: Citrobacter; parameters: key: Susceptible = S; Resistant = R; conditions: cited from earlier work
Enterobacter = tested on: Enterobacter; parameters: key: Susceptible = S; Resistant = R; conditions: cited from earlier work
S. saprophyticus [9] = tested on: S. saprophyticus; parameters: key: Susceptible = S; Resistant = R; conditions: cited from earlier work
E. faecalis [10] = tested on: E. faecalis; parameters: key: Susceptible = S; Resistant = R; conditions: cited from earlier work
E. faecium [11] = tested on: E. faecium; parameters: key: Susceptible = S; Resistant = R; conditions: cited from earlier work
E. coli [12] = tested on: E. coli; parameters: key: Susceptible = S; Resistant = R; conditions: cited from earlier work
P. vulgaris [13] = tested on: P. vulgaris; parameters: key: Susceptible = S; Resistant = R; conditions: cited from earlier work
Pseud. Aeruginosa = tested on: Pseud. Aeruginosa; parameters: key: Susceptible = S; Resistant = R; conditions: cited from earlier work
Klebsiella = tested on: Klebsiella; parameters: key: Susceptible = S; Resistant = R; conditions: cited from earlier work

O=C(O)c1cn(C2CC2)c2cc(N3CCNCC3)c(F)cc2c1=O [CIP, 1-cyclopropyl-6-fluoro-4-oxo-7-piperazin-1-yl-quinoline-3-carboxylic acid]
Antimicrobial resistance of E. coli (resistance in percent) (E. coli [1]; Austria, n 126): 0% | Antimicrobial resistance of E. coli (resistance in percent) (E. coli [1]; Belgium, n 137): 2.9% | Antimicrobial resistance of E. coli (resistance in percent) (E. coli [1]; Canada, n 166): 0% | Antimicrobial resistance of E. coli (resistance in percent) (E. coli [1]; Denmark, n 85): 0% | Antimicrobial resistance of E. coli (resistance in percent) (E. coli [1]; Finland, n 182): 0.5% | Antimicrobial resistance of E. coli (resistance in percent) (E. coli [1]; France, n 199): 2.0% | Antimicrobial resistance of E. coli (resistance in percent) (E. coli [1]; Germany, n 138): 2.2% | Antimicrobial resistance of E. coli (resistance in percent) (E. coli [1]; Greece, n 132): 1.5% | Antimicrobial resistance of E. coli (resistance in percent) (E. coli [1]; Ireland, n 154): 0% | Antimicrobial resistance of E. coli (resistance in percent) (E. coli [1]; Luxembourg, n 24): 4.2% | Antimicrobial resistance of E. coli (resistance in percent) (E. coli [1]; Norway, n 168): 0% | Antimicrobial resistance of E. coli (resistance in percent) (E. coli [1]; Portugal, n 86): 5.8% | Antimicrobial resistance of E. coli (resistance in percent) (E. coli [1]; Spain, n 191): 14.7% | Antimicrobial resistance of E. coli (resistance in percent) (E. coli [1]; Sweden, n 193): 0% | Antimicrobial resistance of E. coli (resistance in percent) (E. coli [1]; Switzerland, n 122): 2.5% | Antimicrobial resistance of E. coli (resistance in percent) (E. coli [1]; The Netherlands, n 195): 2.1% | Antimicrobial resistance of E. coli (resistance in percent) (E. coli [1]; Total, n 2478): 2.3% | Antimicrobial resistance of E. coli (resistance in percent) (E. coli [1]; United Kingdom, n 180): 0.6% | Overall resistance in E. coli (E. coli [2]): 5.5%

Cc1nnc(NS(=O)(=O)c2ccc(N)cc2)s1 [Sulfamethizole]
resistant or susceptible (growth in antibiotic compartment) (E. coli [3]): resistant | Susceptibility = S or Resistance = R (E. faecalis [4]): R | Susceptibility = S or Resistance = R (E. coli [5]): R | Susceptibility = S or Resistance = R (P. vulgaris [6]): S | Susceptibility = S or Resistance = R (Proteus mirabilis): S | Susceptibility = S or Resistance = R (Enterobacter spp): R | Susceptibility = S or Resistance = R (Citrobacter spp.): S | Susceptibility = S or Resistance = R (Morganella spp.): S | Susceptibility = S or Resistance = R (S. saprophyticus [7]): S | Susceptibility = S or Resistance = R (Klebsiella spp.): S | Susceptibility = S or Resistance = R (Candida spp.): R | Susceptibility = S or Resistance = R (P. aureginosa): R | Susceptibility = S or Resistance = R (E. faecium [8]): R

COc1cc(Cc2cnc(N)nc2N)cc(OC)c1OC [Trimethoprim, S-(3,4,5-trimethoxybenzyl)pyrimidine-2,4-diamine]
resistant or susceptible (growth in antibiotic compartment) (E. coli [3]): susceptible | Normal susceptibility/resistance (S. agalactiae): S | Normal susceptibility/resistance (P. mirabilis): S | Normal susceptibility/resistance (Candida sp.): R | Normal susceptibility/resistance (Morganella): S | Normal susceptibility/resistance (Citrobacter): S | Susceptibility = S or Resistance = R (E. faecalis [4]): S | Susceptibility = S or Resistance = R (E. coli [5]): S | Susceptibility = S or Resistance = R (P. vulgaris [6]): S | Susceptibility = S or Resistance = R (Proteus mirabilis): S | Susceptibility = S or Resistance = R (Enterobacter spp): S | Susceptibility = S or Resistance = R (Citrobacter spp.): S | Susceptibility = S or Resistance = R (Morganella spp.): S | Susceptibility = S or Resistance = R (S. saprophyticus [7]): S | Susceptibility = S or Resistance = R (Klebsiella spp.): S | Susceptibility = S or Resistance = R (Candida spp.): R | Susceptibility = S or Resistance = R (P. aureginosa): R | Susceptibility = S or Resistance = R (E. faecium [8]): S | Antimicrobial resistance of E. coli (resistance in percent) (E. coli [1]; Austria, n 126): 9.5% | Antimicrobial resistance of E. coli (resistance in percent) (E. coli [1]; Belgium, n 137): 13.9% | Antimicrobial resistance of E. coli (resistance in percent) (E. coli [1]; Canada, n 166): 10.8% | Antimicrobial resistance of E. coli (resistance in percent) (E. coli [1]; Denmark, n 85): 10.6% | Antimicrobial resistance of E. coli (resistance in percent) (E. coli [1]; Finland, n 182): 5.5% | Antimicrobial resistance of E. coli (resistance in percent) (E. coli [1]; France, n 199): 15.6% | Antimicrobial resistance of E. coli (resistance in percent) (E. coli [1]; Germany, n 138): 22.5% | Antimicrobial resistance of E. coli (resistance in percent) (E. coli [1]; Greece, n 132): 13.6% | Antimicrobial resistance of E. coli (resistance in percent) (E. coli [1]; Ireland, n 154): 22.1% | Antimicrobial resistance of E. coli (resistance in percent) (E. coli [1]; Luxembourg, n 24): 16.7% | Antimicrobial resistance of E. coli (resistance in percent) (E. coli [1]; Norway, n 168): 13.1% | Antimicrobial resistance of E. coli (resistance in percent) (E. coli [1]; Portugal, n 86): 26.7% | Antimicrobial resistance of E. coli (resistance in percent) (E. coli [1]; Spain, n 191): 25.1% | Antimicrobial resistance of E. coli (resistance in percent) (E. coli [1]; Sweden, n 193): 8.8% | Antimicrobial resistance of E. coli (resistance in percent) (E. coli [1]; Switzerland, n 122): 18.9% | Antimicrobial resistance of E. coli (resistance in percent) (E. coli [1]; The Netherlands, n 195): 12.3% | Antimicrobial resistance of E. coli (resistance in percent) (E. coli [1]; Total, n 2478): 14.8% | Antimicrobial resistance of E. coli (resistance in percent) (E. coli [1]; United Kingdom, n 180): 13.3% | Normal susceptibility/resistance (Enterobacter): S | Normal susceptibility/resistance (S. saprophyticus [9]): S | Normal susceptibility/resistance (E. faecalis [10]): S | Normal susceptibility/resistance (E. faecium [11]): S | Normal susceptibility/resistance (E. coli [12]): S | Normal susceptibility/resistance (P. vulgaris [13]): S | Normal susceptibility/resistance (Pseud. Aeruginosa): R | Normal susceptibility/resistance (Klebsiella): S

trimethoprim/sulfamethoxazole [SXT]
Antimicrobial resistance of E. coli (resistance in percent) (E. coli [1]; Austria, n 126): 9.5% | Antimicrobial resistance of E. coli (resistance in percent) (E. coli [1]; Belgium, n 137): 14.6% | Antimicrobial resistance of E. coli (resistance in percent) (E. coli [1]; Canada, n 166): 12.0% | Antimicrobial resistance of E. coli (resistance in percent) (E. coli [1]; Denmark, n 85): 8.2% | Antimicrobial resistance of E. coli (resistance in percent) (E. coli [1]; Finland, n 182): 4.9% | Antimicrobial resistance of E. coli (resistance in percent) (E. coli [1]; France, n 199): 15.1% | Antimicrobial resistance of E. coli (resistance in percent) (E. coli [1]; Germany, n 138): 21.0% | Antimicrobial resistance of E. coli (resistance in percent) (E. coli [1]; Greece, n 132): 11.4% | Antimicrobial resistance of E. coli (resistance in percent) (E. coli [1]; Ireland, n 154): 20.8% | Antimicrobial resistance of E. coli (resistance in percent) (E. coli [1]; Luxembourg, n 24): 16.7% | Antimicrobial resistance of E. coli (resistance in percent) (E. coli [1]; Norway, n 168): 11.3% | Antimicrobial resistance of E. coli (resistance in percent) (E. coli [1]; Portugal, n 86): 26.7% | Antimicrobial resistance of E. coli (resistance in percent) (E. coli [1]; Spain, n 191): 25.7% | Antimicrobial resistance of E. coli (resistance in percent) (E. coli [1]; Sweden, n 193): 8.3% | Antimicrobial resistance of E. coli (resistance in percent) (E. coli [1]; Switzerland, n 122): 18.9% | Antimicrobial resistance of E. coli (resistance in percent) (E. coli [1]; The Netherlands, n 195): 10.3% | Antimicrobial resistance of E. coli (resistance in percent) (E. coli [1]; Total, n 2478): 14.1% | Antimicrobial resistance of E. coli (resistance in percent) (E. coli [1]; United Kingdom, n 180): 12.2% | Overall resistance in E. coli (E. coli [2]): 21.3%
